Data: US20260217691A1, “FOXM1 INHIBITORS AND THEIR USE IN TREATING CANCERS” (THE BOARD OF TRUSTEES OF THE UNIVERSITY OF ILLINOIS, priority 2022, published 2026)

Legend:
FLO-1 cells = assay: Chemosensitization of esophageal adenocarcinoma cells; type: cell-based; conditions: 24 hrs
Description: In all cases, total protein samples were obtained from cells immediately after treatment and analyzed for FOXM1, cleaved caspase-3 levels via immunoblotting, β-actin was used as internal loading control (n=3). […] In all cases, total protein samples were obtained from cells immediately after treatment and analyzed for FOXM1 and cleaved caspase-3 levels via immunoblotting, β-actin was used as internal loading control.

OVCAR-8, ES-2 cells = assay: Chemosensitization (caspase-3 cleavage) of ovarian cancer cells to doxorubicin; type: cell-based, human
Procedure: FIG. 16. […] (A) Ovarian cancer (OVCAR-8 and ES-2) cells were treated with indicated concentrations of Doxorubicin (Doxo) alone or in combination with STL001 for 24 hrs. […] (C) colon cancer (HCT-116 and FET) cells were treated with indicated concentrations of 5′FU alone or in combination with STL001 for 24 hrs.

FOXM1 = target: T1, FOXM1 (Homo sapiens, UniProt Q08050); assay: FOXM1 protein levels by immunoblotting in leukemia/AML cell lines; type: cell-based; parameters: Total protein samples obtain from treated cells were analyzed for FOXM1 protein levels via immunoblotting; endogenous in cells; host or cells: KG-1, HL-60, K562, THP-1 leukemia cell lines
T1 sequence (Q08050 1-763): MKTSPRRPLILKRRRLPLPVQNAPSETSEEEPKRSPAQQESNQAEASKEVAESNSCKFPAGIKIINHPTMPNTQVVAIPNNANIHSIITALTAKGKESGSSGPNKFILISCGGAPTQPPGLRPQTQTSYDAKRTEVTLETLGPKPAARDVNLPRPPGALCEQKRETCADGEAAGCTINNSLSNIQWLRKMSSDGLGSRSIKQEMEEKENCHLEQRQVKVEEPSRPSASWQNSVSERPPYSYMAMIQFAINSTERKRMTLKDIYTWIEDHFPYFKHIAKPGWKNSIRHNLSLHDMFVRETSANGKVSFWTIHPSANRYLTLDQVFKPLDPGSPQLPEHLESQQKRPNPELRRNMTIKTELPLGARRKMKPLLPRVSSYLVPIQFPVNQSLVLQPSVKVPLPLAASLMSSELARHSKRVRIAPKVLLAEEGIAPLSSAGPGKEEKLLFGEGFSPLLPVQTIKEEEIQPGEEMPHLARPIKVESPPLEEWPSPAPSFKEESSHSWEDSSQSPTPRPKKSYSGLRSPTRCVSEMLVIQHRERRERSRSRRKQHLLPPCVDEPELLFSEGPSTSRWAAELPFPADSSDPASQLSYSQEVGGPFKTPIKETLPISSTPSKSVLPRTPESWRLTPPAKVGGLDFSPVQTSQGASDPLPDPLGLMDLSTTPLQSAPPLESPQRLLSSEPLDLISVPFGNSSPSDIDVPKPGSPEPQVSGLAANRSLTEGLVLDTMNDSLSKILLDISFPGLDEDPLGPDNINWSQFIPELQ
Procedure: [a] Leukemia cells, KG-1, HL-60 and K562 were treated with increasing concentrations of STL427944 for 24 hrs. […] [b] THP1 and KG-1 cells were treated with indicated concentrations of venetoclax and STL427944 alone or in combination for 24 hrs. [c] KG-1 and K562 cells were treated with indicated concentrations of cytarabine and STL427944 alone or in combination for 24 hrs.
FIG. 8. STL427944 treatment of human leukemia cell lines suppress FOXM1 protein expression. (a) STL427944 treatment of human leukemia cell lines inhibit FOXM1 protein expression and sensitize cells to venetoclax treatment. […] (b) Stable shRNA-mediated FOXM1 knockdown prominently sensitizes KG-1 cells to cytotoxic effect of venetoclax. (c, d) combined treatment with STL427944 and venetoclax suppresses FOXM1 in KG-1 and THP-1 cells and synergistically promotes cytotoxic effects similarly to FOXM1 knockdown. Total protein was isolated from cells immediately after the treatment and analyzed via immunoblotting with FOXM1 antibodies). Apoptosis induction was estimated based on caspase-3 cleavage.
FIGS. 9A and 9B: Novel FOXM1 inhibitor STL001 sensitizes Leukemia cells to chemotherapy agents. [a] Structural formula of novel FOXM1 inhibitor STL001. [b] Leukemia cells, KG-1, HL-60, and K562 were treated with increasing concentrations of STL001 for 24 hrs. […] [c] KG-1 cells were treated with indicated concentrations of Laptomycin B, Chloroquine, and STL001 for 24 hrs. […] [d] KG-1, HL-60, and K562 cells were treated with indicated concentrations of venetoclax and STL001 alone or in combination for 24 hrs. [e] KG-1, HL-60, and K562 cells were treated with indicated concentrations of cytarabine and STL alone or in combination for 24 hrs.
FIGS. 13A-13H STL001 is a novel FOXM1 inhibitor that sensitizes leukemia cells to standard cytotoxic and bcl2 inhibitor therapies. FIG. 13A AML cell line KG-1 treated with precursor compound STL427944. FIG. 3B AML cell lines KG-1, HL-60, and K562 were treated with increasing concentrations of STL001 for 24 h. Total protein samples obtained from treated cells were analyzed for FOXM1 protein levels using immunoblotting; β-actin was used as the internal loading control. FIG. 13C KG-1, HL-60, and K562 cells were treated with indicated concentrations of venetoclax and STL001 alone or in combination for 24 h. FIG. 13D KG-1, HL-60, and K562 cells were treated with indicated concentrations of cytarabine and STL001 alone or in combination for 24 h. […] FIG. 13E KG-1 cells were treated with indicated concentrations of Leptomycin B, Chloroquine, and STL001 for 24 h. Total protein samples obtained from treated cells were analyzed for FOXM1 protein levels via immunoblotting; β-actin was used as an internal loading control. FIG. 13F KG-1 cell lines with shRNA knockdown of FOXM1 were treated with venetoclax and STL001 and compared to parental cells. FIG. 13G Real-time PCR-based expression profiling for canonical FOXM1 target genes was performed on primary AML mononuclear cells (n=5) treated ex vivo with STL001 5 μM for 24 h. Mean and standard error of the delta Ct for DMSO or treatment group are plotted for each gene. P-value is estimated by two-tailed paired t-test. Asterisks denote P<0.05. FIG. 13H Treatment of peripheral blood mononuclear cells with STL001 for 24 h followed by immunohistochemistry for FOXM1. Slides were scanned on an Aperio AT2 brightfield scanner and images were analyzed using HALO 2.0 software. Hematoxylin counterstain was used to segment nuclei within the ROIs and to establish an accurate cell count. Percent cells with nuclear FOXM1 expression compared between DMSO and STL001 treated cells. P-value is based on one-tailed paired t-test.

## O=C(Oc1cccc(-c2ccn(-c3nc(Nc4ccccc4)nc(N4CCOCC4)n3)n2)c1)c1ccco1 [STL001]
FLO-1 cells
  sensitization to Cisplatin, 5′FU, Paclitaxel, Irinotecan: sensitizes esophageal adenocarcinoma cells (FLO-1) to conventional chemotherapeutic drugs
OVCAR-8, ES-2 cells
  cytotoxic effects as a single agent: did not exert significant cytotoxic effects
OVCAR-8, ES-2 cells; 24 hrs
  apoptotic cell death (caspase-3 cleavage) in combination with doxorubicin: potent induction of apoptotic cell death
FOXM1; AML cell lines
  concentration suppressing FOXM1: 0.5 µM
FOXM1; AML cells
  FOXM1 localization: localizes FOXM1 to the cytoplasm
FOXM1; KG-1, HL-60, K562, 24 h
  lowest concentration with dose-dependent inhibition of FOXM1 protein expression: 500 nM
FOXM1; estimated, relative to STL427944
  improvement in efficiency to suppress FOXM1 / increased potency as FOXM1 inhibitor versus STL427944: up to 50 fold
FOXM1; leukemia cell lines, increasing concentrations, 24 h
  FOXM1 protein levels: dose-dependent inhibition of FOXM1 protein expression
